Test results from US20250009734A1, “METHODS OF INHIBITING FOXO1 FOR TREATMENT OF LYMPHATIC DISORDERS” (UNIVERSITY OF SOUTH FLORIDA, priority 2023, published 2025).

Legend:
[1] = Nagashima et al., 2010; cited from earlier work
Foxc2^+/CreERT2 mice = assay: Mesenteric lymphatic valve counting after i.p. injection in pups; assay type: in vivo, mouse
Description: FIGS. 3A-3F. AS1842856 treatment in vivo increases valve number in Foxc2^+/CreERT2 mice. (A) Schematic illustration of AS1842856 injection procedure in postnatal day (P) 7-21 pups. (B-E) Fluorescent images showing the morphology of mesenteric collecting lymphatic vessels at P21. Mesenteries are from Prox1-GFP with DMSO (vehicle control) injection (B); Prox1-GFP with AS1842856 injection (C); Foxc2^+/CreERT2; Prox1-GFP with DMSO injection (D); Foxc2^+/CreERT2; Prox1-GFP with AS1842856 injection (E). (F) Quantification of valves per millimeter at P21 from 4 groups of mice. 4 mice are used for the analysis. All values are mean±SEM. Two-way ANOVA was performed with Turkey's multiple comparisons. ns=not significant, *p≤0.05, ***p<0.001. Scale bar is 1000 μm.
Foxc2 is a chief regulator of lymphatic valve development modulating the expression of many valve genes (Sabine et al., 2015). While Foxc2 null animals are embryonic lethal, the Foxc2 heterozygous mice are a model of the human disease lymphedema-distichiasis with severe lymphatic valve loss (Kriederman et al., 2003, Petrova et al., 2004). To test whether AS1842856 treatment increases valve growth in vivo, the inventors intraperitoneally (i.p.) injected AS1842856 into Foxc2^+/CreERT2 pups. Instead of using wildtype pups as control, Prox1-GFP mice were used as control as well as for visualizing the lymphatic vasculature (Choi et al., 2011). The Foxc2^+/CreERT2 pups were also bred to carry the Prox1-GFP allele. Since the open reading frame in one allele of the Foxc2 gene is replaced with the cDNA for CreERT2, the Foxc2^+/CreERT2 mice is heterozygous for Foxc2 gene (Geng et al., 2016). […] To compare the number of valves from these 4 groups, the inventors counted total number of valves from 6 branches (from the lymph nodes to the gut wall) in the mesentery and measured the total length of these branches as previously published (Scallan et al., 2021). […]
TM administered postnatal pups were euthanized using an IACUC approved method and the colleting lymphatics were analyzed at the experimental timepoints. […]

FOXO4 = FOXO4 (Homo sapiens, UniProt P98177); details: Nagashima et al., 2010; cited from earlier work
Sequence of FOXO4 (P98177 whole entry, species assumed): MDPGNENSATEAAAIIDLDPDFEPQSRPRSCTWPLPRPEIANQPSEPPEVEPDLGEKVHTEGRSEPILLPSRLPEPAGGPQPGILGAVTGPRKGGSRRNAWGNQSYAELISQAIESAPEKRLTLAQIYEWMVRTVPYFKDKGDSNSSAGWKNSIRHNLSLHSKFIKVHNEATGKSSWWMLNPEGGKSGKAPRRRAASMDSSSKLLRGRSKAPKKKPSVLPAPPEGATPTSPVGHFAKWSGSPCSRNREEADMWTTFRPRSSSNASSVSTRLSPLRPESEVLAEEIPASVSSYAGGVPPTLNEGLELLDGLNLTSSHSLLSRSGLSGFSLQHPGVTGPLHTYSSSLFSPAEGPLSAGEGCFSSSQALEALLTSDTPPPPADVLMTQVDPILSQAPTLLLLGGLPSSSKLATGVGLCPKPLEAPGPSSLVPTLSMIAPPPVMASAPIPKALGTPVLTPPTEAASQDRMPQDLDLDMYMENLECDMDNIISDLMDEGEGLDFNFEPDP

Q: What does the source list for CCn1cc(C(=O)O)c(=O)c2c(N)c(F)c(NC3CCCCC3)cc21 [AS1842856]?
A: cell permeability [1]: cell permeable; valves/mm in mesentery (Foxc2^+/CreERT2 mice; Foxc2^+/CreERT2 pups with AS1842856 injection (8 mg/kg i.p. every other day P7-P21) vs Foxc2^+/CreERT2 pups with DMSO injection): significantly higher; valves/mm in mesentery (Foxc2^+/CreERT2 mice; Foxc2^+/CreERT2 pups with AS1842856 injection (8 mg/kg i.p. every other day P7-P21) vs Prox1-GFP pups with DMSO injection): still significantly lower; valves/mm in mesentery (Foxc2^+/CreERT2 mice; Prox1-GFP pups with AS1842856 injection (8 mg/kg i.p. every other day P7-P21) vs Prox1-GFP pups with DMSO injection): no significant difference; effect on inhibiting the activity of FOXO4 (FOXO4): minimal effect
